In patent US12384769B2, “Heteroaryl-substituted aminoalkyl azole compounds as pesticides” (Elanco Animal Health GmbH, priority 2019, dated 2025):

Legend:
Format in all cases: in vivo
[1] = test system: Ctenocephalides felis; assay: Ctenocephalides felis oral test (CTECFE); settings: 48 h, 100 ppm in cattle blood, after 2 days
Method in brief: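 About 20 adult unfed fleas fed through parafilm on cattle blood held at 37° C and dosed with compound from a DMSO concentrate; flea chamber at room temperature. Percent mortality scored after 2 days.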

[2] = test system: Rhipicephalus sanguineus; assay: Rhipicephalus sanguineus in-vitro contact test, adult brown dog ticks (RHIPSA Contact); settings: 5 μg/cm^2 (=500 g/ha), after 48 hours, read-out: activity (efficacy, ticks dead or moribund)
Description: Rhipicephalus sanguineus—in-Vitro Contact Tests with Adult Brown Dog Ticks (RHIPSA Contact)
(§1) 9 mg compound is solved in 1 ml acetone and diluted with acetone to the desired concentration. 250 μl_, of the test solution is filled in 25 ml glass test tubes and homogeneously distributed on the inner walls by rotation and tilting on a shaking device (2 h at 30 rpm). With a compound concentration of 900 ppm, an inner surface of 44.7 cm^2 and a homogeneous distribution, a dose of 5 μg/cm^2 is achieved.
(§2) After the solvent has evaporated, each test tube is filled with 5-10 adult brown dog ticks (Rhipicephalus sanguineus), closed with a perforated lid and incubated in a lying position at room temperature and relative humidity. After 48 hours efficacy is determined. The ticks are patted on the ground of the tubes and are incubated on a heating plate at 45-50° C. for at most 5 minutes Immotile or uncoordinated moving ticks, which are not able to escape the heat by climbing upwards, are marked as dead or moribund.
An efficacy of 100% means all ticks are dead or moribund; 0% means no ticks are dead or moribund.

[3] = test system: Rhipicephalus microplus (strain Parkhurst, resistant against synthetic pyrethroids); assay: Rhipicephalus microplus in-vitro contact test, larval cattle tick (BOOPMI Contact); settings: 5 μg/cm^2 (=500 g/ha), after 48 hours, read-out: activity (efficacy, larvae dead or moribund)
Method in brief: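 Efficacy, expressed as percentage of larvae dead or moribund, is judged by negative geotactic behaviour 48 h after larvae (20-50 per tube) enter tubes whose inner walls carry a dried acetone film of compound, 5 μg/cm² at 900 ppm. Incubation: horizontal, 27 °C, 85% relative humidity.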

[4] = test system: Boophilus microplus; assay: Boophilus microplus injection test (BOOPMI Injection); settings: Rhipicephalus microplus, 168 h, injection into adult engorged female ticks, egg deposition after 7 days, read-out: activity (efficacy, infertile eggs); for pest or weed control at 0.004 mg: 4 μg/animal; for pest or weed control at 0.02 mg: 20 μg/animal
Method in brief: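 Adult engorged female ticks (5 per group) injected into the abdomen with 1 μL compound in DMSO, then held in a climate chamber. Fertile egg deposition scored after 7 days, with unclear eggs kept until hatching (~42 days). Efficacy 100% = all eggs infertile, 0% = all fertile.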

[5] = test system: Diabrotica balteata; assay: Diabrotica balteata spray test; settings: 168 h, wheat seeds, after 7 days, read-out: activity (efficacy, seedlings grown); for pest or weed control at 160 µg/disc, 500 g/ha: 500 g/ha (=160 μg/well)
Method in brief: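 Efficacy was read 7 days after infesting each unit with 10–20 banded cucumber beetle larvae, as % of seedlings growing like untreated, uninfested controls. Before infestation, wheat seeds germinated 1 day on agar (5 per well) were sprayed with the active ingredient. The active was formulated in acetone/DMF and diluted in water containing emulsifier.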

[6] = test system: Spodoptera frugiperda; assay: Spodoptera frugiperda spray test; settings: in Zea mays, 168 h, read-out: activity (mortality)
Method in brief: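 Larvae of fall armyworm placed on dried maize leaf sections previously sprayed with emulsified compound (acetone/DMF solvent, water with 1000 ppm emulsifier). Percent of caterpillars killed recorded on day 7, 0–100% scale.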

[7] = test system: Ctenocephalides felis; assay: Ctenocephalides felis in-vitro contact test, adult cat flea; settings: 5 μg/cm^2 (=500 g/ha), after 48 hours, read-out: activity (efficacy, fleas dead or moribund)
Description: Ctenocephalides felis—in-Vitro Contact Tests Adult Cat Flea
as §1, with “[…]” for “250 μl_,”
as §2, with “cat fleas (Ctenocephalides felis),” for “brown dog ticks (Rhipicephalus sanguineus),”, “fleas” for “ticks”, “fleas,” for “ticks,”
An efficacy of 100% means all fleas are dead or moribund; 0% means no fleas are dead or moribund.

C[C@H](Nc1nc2cc(C(F)(F)F)cc(Br)c2o1)c1ncnn1-c1ncccn1 [Example I-034]
mortality at 100 ppm [1]: 100%
pest or weed control at 5 µg/cm2, 5 µg/cm2 [2]: 100%
pest or weed control at 5 µg/cm2 [3]: 90%
pest or weed control at 0.004 mg [4]: 100%
pest or weed control at 0.02 mg [4]: 100%
pest or weed control at 100 g/ha [5]: 100%
pest or weed control at 160 µg/disc, 500 g/ha [5]: 80%
mortality at 100 g/ha [6]: 100%
mortality at 500 g/ha [6]: 100%

C[C@H](Nc1nc2cc(C(F)(F)F)cc(Br)c2o1)c1ncnn1-c1ccc(C#N)cn1 [Example I-055, 6-[5-[(1S)-1-{[7-Brom-5-(trifluormethyl)-1,3-benzoxazol-2-yl]amino}ethyl]-1H-1,2,4-triazol-1-yl}nicotinonitril]
pest or weed control at 5 µg/cm2, 5 µg/cm2 [2]: 100%
pest or weed control at 5 µg/cm2 [3]: 100%
pest or weed control at 0.004 mg [4]: 80%
pest or weed control at 0.02 mg [4]: 100%
pest or weed control at 100 g/ha [5]: 100%
pest or weed control at 160 µg/disc, 500 g/ha [5]: 100%
mortality at 100 g/ha [6]: 100%
mortality at 500 g/ha [6]: 100%

C[C@H](Nc1nc2cc(C(F)(F)F)cc(Cl)c2o1)c1ncnn1-c1cnccn1 [Example I-039, 7-chloro-N-{(1S)-1-[1-(pyrazin-2-yl)-1H-1,2,4-triazol-5-yl]ethyl}-5-(trifluoromethyl)-1,3-benzoxazol-2-amine]
mortality at 100 ppm [1]: 100%
pest or weed control at 5 µg/cm2, 5 µg/cm2 [2]: 100%
pest or weed control at 5 µg/cm2 [3]: 90%
pest or weed control at 0.004 mg [4]: 100%
pest or weed control at 0.02 mg [4]: 100%
pest or weed control at 100 g/ha [5]: 100%
pest or weed control at 160 µg/disc, 500 g/ha [5]: 100%
mortality at 500 g/ha [6]: 100%

C[C@H](Nc1nc2cc(C(F)(F)F)cc(Cl)c2o1)c1ncnn1-c1ccncn1 [Example I-047, 7-Chlor-N-{(1S)-1-[1-(pyrimidin-4-yl)-1H-1,2,4-triazol-5-yl]ethyl}-5-(trifluormethyl)-1,3-benzoxazol-2-amin]
pest or weed control at 5 µg/cm2, 5 µg/cm2 [2]: 100%
pest or weed control at 5 µg/cm2 [3]: 100%
pest or weed control at 0.004 mg [4]: 100%
pest or weed control at 0.02 mg [4]: 100%
pest or weed control at 100 g/ha [5]: 100%
pest or weed control at 160 µg/disc, 500 g/ha [5]: 100%
mortality at 100 g/ha [6]: 100%
mortality at 500 g/ha [6]: 100%

C[C@H](Nc1nc2cc(C(F)(F)F)cc(Cl)c2o1)c1ncnn1-c1ncc(Cl)cn1 [Example I-036, 7-chloro-N-{(1S)-1-[1-(5-chloropyrimidin-2-yl)-1H-1,2,4-triazol-5-yl]ethyl}-5-(trifluoromethyl)-1,3-benzoxazol-2-amine]
mortality at 100 ppm [1]: 100%
pest or weed control at 5 µg/cm2, 5 µg/cm2 [2]: 100%
pest or weed control at 5 µg/cm2 [3]: 100%
pest or weed control at 0.004 mg [4]: 100%
pest or weed control at 0.02 mg [4]: 100%
pest or weed control at 5 µg/cm2, 5 µg/cm2 [7]: 80%
pest or weed control at 100 g/ha [5]: 100%
mortality at 100 g/ha [6]: 100%

C[C@H](Nc1nc2cc(Cl)cc(C(F)(F)F)c2o1)c1ncnn1-c1ncccn1 [Example I-090, 5-Chlor-N-{(1S)-1-[1-(pyrimidin-2-yl)-1H-1,2,4-triazol-5-yl]ethyl}-7-(trifluormethyl)-1,3-benzoxazol-2-amin]
pest or weed control at 5 µg/cm2, 5 µg/cm2 [2]: 100%
pest or weed control at 5 µg/cm2 [3]: 100%
pest or weed control at 0.004 mg [4]: 80%
pest or weed control at 0.02 mg [4]: 100%
pest or weed control at 160 µg/disc, 500 g/ha [5]: 100%
mortality at 500 g/ha [6]: 100%

C[C@H](Nc1nc2cc(C(F)(F)F)c(Cl)cc2o1)c1ncnn1-c1ncc(Br)cn1 [Example I-062, N-{(1S)-1-[1-(5-Brompyrimidin-2-yl)-1H-1,2,4-triazol-5-yl]ethyl}-6-chlor-5-(trifluormethyl)-1,3-benzoxazol-2-amin]
pest or weed control at 5 µg/cm2, 5 µg/cm2 [2]: 100%
pest or weed control at 5 µg/cm2 [3]: 100%
pest or weed control at 0.004 mg [4]: 100%
pest or weed control at 0.02 mg [4]: 100%
pest or weed control at 5 µg/cm2, 5 µg/cm2 [7]: 100%
pest or weed control at 100 g/ha [5]: 100%
pest or weed control at 160 µg/disc, 500 g/ha [5]: 100%
mortality at 100 g/ha [6]: 100%
mortality at 500 g/ha [6]: 100%

C[C@H](Nc1nc2cc(C(F)(F)F)c(Cl)cn2n1)c1ncnn1-c1ncccn1 [Example I-096, 6-chloro-N-{(1S)-1-[1-(pyrimidin-2-yl)-1H-1,2,4-triazol-5-yl]ethyl}-7-(trifluoromethyl)[1,2,4]triazolo[1,5-a]pyridin-2-amine]
mortality at 100 ppm [1]: 100%
pest or weed control at 5 µg/cm2, 5 µg/cm2 [2]: 100%
pest or weed control at 5 µg/cm2 [3]: 90%
pest or weed control at 5 µg/cm2, 5 µg/cm2 [7]: 100%

C[C@H](Nc1nc2cc(S(F)(F)(F)(F)F)cc(Cl)c2o1)c1ncnn1-c1ncc(Br)cn1 [Example I-083, N-{(1S)-1-[1-(5-Brompyrimidin-2-yl)-1H-1,2,4-triazol-5-yl]ethyl}-7-chlor-5-(pentafluor-lambda^6-sulfanyl)-1,3-benzoxazol-2-amin]
pest or weed control at 5 µg/cm2, 5 µg/cm2 [2]: 100%
pest or weed control at 5 µg/cm2 [3]: 100%
pest or weed control at 5 µg/cm2, 5 µg/cm2 [7]: 80%
pest or weed control at 100 g/ha [5]: 80%
mortality at 100 g/ha [6]: 100%

C[C@H](Nc1nc2cc(C3CC3)cc(Cl)c2o1)c1ncnn1-c1ncccn1 [Example I-065, 7-Chlor-5-cyclopropyl-N-{(1S)-1-[1-(pyrimidin-2-yl)-1H-1,2,4-triazol-5-yl]ethyl}-1,3-benzoxazol-2-amin]
mortality at 100 ppm [1]: 100%
pest or weed control at 5 µg/cm2, 5 µg/cm2 [2]: 100%
pest or weed control at 0.004 mg [4]: 100%
pest or weed control at 0.02 mg [4]: 100%
pest or weed control at 5 µg/cm2, 5 µg/cm2 [7]: 100%
pest or weed control at 100 g/ha [5]: 100%
pest or weed control at 160 µg/disc, 500 g/ha [5]: 100%

Cc1cnc(-n2ncnc2[C@H](C)Nc2nc3cc(C(F)(F)F)cc(Cl)c3o2)nc1 [Example I-040, 7-Chlor-N-{(1S)-1-[1-(5-methylpyrimidin-2-yl)-1H-1,2,4-triazol-5-yl]ethyl}-5-(trifluormethyl)-1,3-benzoxazol-2-amin]
mortality at 100 ppm [1]: 100%
pest or weed control at 5 µg/cm2, 5 µg/cm2 [2]: 100%
pest or weed control at 5 µg/cm2 [3]: 90%
pest or weed control at 0.004 mg [4]: 100%
pest or weed control at 5 µg/cm2, 5 µg/cm2 [7]: 100%
pest or weed control at 100 g/ha [5]: 100%

CC(Nc1nc2cc(C#N)cc(Cl)c2o1)c1ncnn1-c1ncccn1 (stereo not drawn) [Example I-084, 7-Chlor-2-({1-[1-(pyrimidin-2-yl)-1H-1,2,4-triazol-5-yl]ethyl}amino)-1,3-benzoxazol-5-carbonitril]
pest or weed control at 5 µg/cm2, 5 µg/cm2 [2]: 80%
pest or weed control at 5 µg/cm2 [3]: 80%
pest or weed control at 0.004 mg [4]: 100%
pest or weed control at 0.02 mg [4]: 100%
pest or weed control at 5 µg/cm2, 5 µg/cm2 [7]: 100%
pest or weed control at 160 µg/disc, 500 g/ha [5]: 100%

C[C@H](Nc1nc2cc(Cl)c(C(F)(F)F)cn2n1)c1ncnn1-c1ncccn1 [Example I-097, 7-chloro-N-{(1S)-1-[1-(pyrimdin-2-yl)-1H-1,2,4-triazol-5-yl]ethyl}-6-(trifluoromethyl)[1,2,4]triazolo[1,5-a]pyridin-2-amine]
pest or weed control at 5 µg/cm2, 5 µg/cm2 [2]: 80%
pest or weed control at 5 µg/cm2 [3]: 100%
pest or weed control at 5 µg/cm2, 5 µg/cm2 [7]: 100%
